From patent US11832615B2 (priority 2013, dated 2023)
Where two headings read alike, the source gives them in different places.

Key:
[1] = system: Ralstonia solanacearum; assay type: in vivo; settings: tomato, 33 days after transplantation
[2] = system: Ralstonia solanacearum; assay type: in vivo; settings: tomato, 17 days after transplantation, 10 mgAI/m^2

## CCOP(=O)(SC(C)CC)SC(C)CC (stereo not shown) [Cadusafos, cadusafos]
[1]; 900 mgAI/m^2, with Paecilomyces fumosoroseus 3 × 10^9 CFU/m^2 (+)
  Controlling value (%): 100%
[1]; 900 mgAI/m^2, without Paecilomyces fumosoroseus (−)
  Controlling value (%): 50%

## O=S(=O)(CCC(F)=C(F)F)c1ncc(Cl)s1 [Fluensulfone, fluensulfone]
[1]; 400 mgAI/m^2, with Paecilomyces fumosoroseus 3 × 10^9 CFU/m^2 (+)
  Controlling value (%): 85%
[1]; 400 mgAI/m^2, without Paecilomyces fumosoroseus (−)
  Controlling value (%): 0%

## CCOP(=O)(SC(C)CC)N1CCSC1=O (stereo not shown) [Fosthiazate, fosthiazate]
[1]; 300 mgAI/m^2, with Paecilomyces fumosoroseus 3 × 10^9 CFU/m^2 (+)
  Controlling value (%): 85%
[1]; 300 mgAI/m^2, without Paecilomyces fumosoroseus (−)
  Controlling value (%): 0%

## COP(=S)(OC)Oc1ccc([N+](=O)[O-])c(C)c1 [MEP, MEP (fenitrothion)]
[2]; with Paecilomyces fumosoroseus 3 × 10^9 CFU/m^2 (+)
  Controlling value (%): 75%
[2]; without Paecilomyces fumosoroseus (−)
  Controlling value (%): 0%

## O=C(NCCc1ncc(C(F)(F)F)cc1Cl)c1ccccc1C(F)(F)F [Fluopyram, fluopyram]
[1]; 10 mgAI/m^2, with Paecilomyces fumosoroseus 3 × 10^9 CFU/m^2 (+)
  Controlling value (%): 62%
[1]; 10 mgAI/m^2, without Paecilomyces fumosoroseus (−)
  Controlling value (%): 0%
